Results as given in PubChem BioAssay AID651630 (Sanford-Burnham Center for Chemical Genomics, 2012).
Calls of active or inactive are those of the source.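 Rule for the calls: active = lipid-stain IC50 at or below a set limit, with nuclear-stain toxicity IC50 at least five times higher; inactive = the rest.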

Legend:
TAG = experiment: triacylglycerol accumulation inhibitor potency, dose response, cell-based, panel, Nile Red and DAPI fluorescence, H9c2 (AID 651630); settings: H9c2 cells, Nile Red TAG fluorescence, oleic acid;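 note: cells exposed to compound overnight before fixation and staining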
DAPI = experiment: as above; settings: H9c2 cells, DAPI nuclear fluorescence (cytotoxicity counter-readout), oleic acid

| Structure (SMILES) | IC50 (TAG; mean of runs) | IC50 (TAG; run 1) [µM] | IC50 (TAG; run 2) [µM] | IC50 cytotoxicity (DAPI nuclear signal decrease) (DAPI; mean of runs) | IC50 cytotoxicity (DAPI nuclear signal decrease) (DAPI; run 1) [µM] | IC50 cytotoxicity (DAPI nuclear signal decrease) (DAPI; run 2) [µM] |
| --- | --- | --- | --- | --- | --- | --- |
| COc1cc(C)c2sc3ccccc3c(=O)c2c1NCCN(C)C | 9.19 µM | 7.48 | 10.9 | > 25 µM (inactive) | > 25 | > 25 |
| CCOCCC(=O)Nc1ccc2c(c1)c(=O)n(C)n2C/C=C/c1ccccc1 | > 25 µM (inactive) | > 25 | > 25 | > 25 µM (inactive) | > 25 | > 25 |
| CC(C)(C)c1ccc(/C=N/NC(=O)Cc2c[nH]c3ccccc23)cc1 | 20.5 µM (inactive) | 16.5 | 24.4 | > 25 µM (inactive) | > 25 | > 25 |
| COc1cc(CNC(=O)Nc2nc(C(N)Cc3ccc(Cl)cc3)cs2)cc(OC)c1OC (stereo unspecified) | 3.91 µM | 3.31 | 4.5 |  | > 25 | > 25 |
| CCCC1O[C@@H]2C[C@H]3[C@@H]4CCC5=CC(=O)C=C[C@]5(C)[C@H]4[C@@H](O)C[C@]3(C)[C@]2(C(=O)CO)O1 (stereo partly specified) | 3.49 µM | 3.52 | 3.46 |  | > 25 | > 25 |
| O=C1CCCC2=C1C1(CCCC1)N=C(Nc1nc3cc(-c4ccccc4)ccc3o1)N2 | 17.5 µM (inactive) | 15.5 | 19.5 | > 25 µM (inactive) | > 25 | > 25 |
| CC(C)(C)c1cc(NCc2ccccn2)n2ncc(-c3ccc(Cl)cc3)c2n1 | > 25 µM (inactive) | > 25 | > 25 | > 25 µM (inactive) | > 25 | > 25 |
| CC1(C(=O)Nc2ccc3c(c2)OCO3)Cc2c(-c3cccc(C(N)=O)c3)ccnc2O1 (stereo unspecified) |  | > 25 | 19.1 | > 25 µM (inactive) | > 25 | > 25 |
| O=C1C(NS(=O)(=O)c2cccs2)=C(N2CCN(c3cccc(C(F)(F)F)c3)CC2)C(=O)c2ccccc21 | 5.88 µM | 7.01 | 4.75 | > 25 µM (inactive) | > 25 | > 25 |
| Nc1ncnc2c1ncn2C1C=C(CO)C(O)C1O (stereo unspecified) | 12.5 µM | 11.4 | 13.7 | > 25 µM (inactive) | > 25 | > 25 |
| Cc1cc(N2CCN(Cc3cn(C)nc3-c3ccccc3F)CC2)cc(C)n1 | 13.1 µM | 11.1 | 15.1 | > 25 µM (inactive) | > 25 | > 25 |
| CCN(CC)CCC(c1ccc2c(c1)OCO2)c1c(OC)cc(OC)c2c(-c3ccccc3)cc(=O)oc12 (stereo unspecified) | > 25 µM (inactive) | > 25 | > 25 | > 25 µM (inactive) | > 25 | > 25 |
| Nc1c(Cl)cc(-c2csc(N3CCCC3c3nc4cc(Cl)c(N5CCCCC5)cc4n3CCCO)n2)cc1Cl (stereo unspecified) | 3.56 µM | 2.87 | 4.26 | 15.6 µM (inactive) | 14.5 | 16.6 |
| CCCCCOc1ccc(NC(=O)CSc2cccc3cccnc23)cc1 | > 25 µM (inactive) | > 25 | > 25 | > 25 µM (inactive) | > 25 | > 25 |
| COc1cc(OC)c2c(-c3ccccc3)cc(=O)oc2c1C(CCN1CCCCC1)c1ccc2c(c1)OCO2 (stereo unspecified) | 22.9 µM (inactive) | 20.9 | 24.9 | > 25 µM (inactive) | > 25 | > 25 |
| CN(C)CCCN1c2ccccc2Sc2ccccc21 | > 25 µM (inactive) | > 25 | > 25 | > 25 µM (inactive) | > 25 | > 25 |
| Cc1cc(C)c2nc(NC(=O)c3ccc([N+](=O)[O-])o3)sc2c1 | > 25 µM (inactive) | > 25 | > 25 | > 25 µM (inactive) | > 25 | > 25 |

| Structure (SMILES) | IC50 (TAG; mean of runs) | IC50 (TAG; run 1) [µM] | IC50 (TAG; run 2) [µM] | IC50 cytotoxicity (DAPI nuclear signal decrease) (DAPI; mean of runs) | IC50 cytotoxicity (DAPI nuclear signal decrease) (DAPI; run 1) [µM] | IC50 cytotoxicity (DAPI nuclear signal decrease) (DAPI; run 2) [µM] |
| --- | --- | --- | --- | --- | --- | --- |
| C=CCC[C@H](Cc1ccc(F)cc1)C(=O)OC[C@H](C)NC(=O)[C@@H](CC=C)CC(=O)N[C@H](CO)Cc1ccccc1 | 15.4 µM (inactive) | 11.9 | 18.9 | > 25 µM (inactive) | > 25 | > 25 |
| O=C(CC1C[C@H](C(=O)N2CCOCC2)[C@@]2(CCC3CCCC3)c3[nH]c4ccccc4c3CCN2C1=O)NCC12CC3CC(CC(C3)C1)C2 (stereo partly specified) | > 25 µM (inactive) | > 25 | > 25 | > 25 µM (inactive) | > 25 | > 25 |
| Cc1ccc(-c2nc(NC(=O)c3cc(C(C)(C)C)nn3C)sc2C)cc1Cl | 5.56 µM | 6.38 | 4.74 | 21.1 µM (inactive) | 20.2 | 22 |
| COc1ccc(-c2nc(NC(=O)C3CCN(c4nc5ccccc5o4)CC3)sc2C)cc1 | 13 µM | 15.6 | 10.4 | > 25 µM (inactive) | > 25 | > 25 |
| COc1ccc2[nH]c(C)c(CCNCc3cn(C)c4ccccc34)c2c1 | 10.7 µM | 10.2 | 11.2 | > 25 µM (inactive) | > 25 | > 25 |
| CCN(CC(=O)Nc1ccc(C(=O)Nc2ccc(OC)cc2)cc1)Cc1nc2ccccc2c(=O)[nH]1 | > 25 µM (inactive) | > 25 | > 25 | > 25 µM (inactive) | > 25 | > 25 |
| COC(=O)[C@@]1(Cc2ccc(F)cc2)[C@H]2c3cc(C(=O)N4CCCC4)n(CCCNc4ncc(C(F)(F)F)cc4Cl)c3C[C@H]2CN1C(=O)c1ccccc1 | 2.58 µM | 2.76 | 2.41 |  | > 25 | > 25 |
| COc1cc(C#Cc2c(-c3cncn3C)n(C)c3ccc(-c4ccc5cc[nH]c5c4)cc23)cc(OC)c1 | 11.7 µM | 12.1 | 11.3 | > 25 µM (inactive) | > 25 | > 25 |
| CCC(=O)Nc1ccc(-c2nnc(-c3ccccc3)o2)cc1 | > 25 µM (inactive) | > 25 | > 25 | > 25 µM (inactive) | > 25 | > 25 |
| O=C(c1cc(-c2ccncc2)nc2c(Cl)cccc12)N1CCN(c2ccccc2F)CC1 | 5.67 µM | 6.89 | 4.44 | > 25 µM (inactive) | > 25 | > 25 |
| COc1ccc(S(=O)(=O)N2N=C(C)Oc3ccccc3C2=O)cc1 | > 25 µM (inactive) | > 25 | > 25 | > 25 µM (inactive) | > 25 | > 25 |
| Nc1c(C(=O)NC2CCCC2)c2nc3ccccc3nc2n1/N=C/c1cccnc1 | 19 µM (inactive) | 15 | 23 | > 25 µM (inactive) | > 25 | > 25 |
| CC(C)c1ccc(Nc2nc(N3CCOCC3)nc(N3CCOCC3)n2)cc1 | 3.9 µM | 4.38 | 3.41 |  | > 25 | > 25 |
| Cc1ccc(CC2(OCCN(C)C)CCC(C(C)(C)C)CC2)cc1 (stereo unspecified) | > 25 µM (inactive) | > 25 | > 25 | 23.5 µM (inactive) | 23.2 | 23.8 |
| COc1cc(CC(=O)OCC(=O)c2ccc3c(c2)OCCO3)cc(OC)c1OC |  | 17.1 | > 25 |  | 2.3 | > 25 |
| Cc1cccc(NC(=O)c2ccc([N+](=O)[O-])o2)c1C |  | 19.8 | > 25 | 10.3 µM (inactive) | 9.7 | 10.9 |
| NC(=O)N/N=C/c1c(Sc2nnnn2-c2ccccc2)nc2ccccn2c1=O | 10.7 µM | 15.3 | 6.11 | 17.2 µM (inactive) | 15.7 | 18.7 |
